Test results as given in patent US9359297B2, “Spirolactam derivatives and uses of same” (H. Lundbeck A/S, priority 2009, dated 2016).

Key:
[1] = biological target: T1, rat metabotropic glutamate receptor 5 (rmGluR5) (Rattus norvegicus, UniProt P31424); experiment: Calcium mobilization (FLIPR) assay for negative allosteric modulation, EC80 glutamate, rmGluR5 in HEK 293; format: cell-based; details: HEK293; rmGluR5, inhibition of EC80 glutamate response; read-out: FLIPR maximum inhibition
T1 construct: expressed in transfected cells
In short: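 Stably transfected HEK 293 cells, Fluo-4-loaded, stimulated with EC80 glutamate plus test compound in HBSS/20 mM HEPES pH 7.4 with probenecid; FLIPR fluorescence read over 3 min at room temperature. Basal-subtracted maximum fluorescence change fitted by Hill equation; negative modulation seen as concentration-dependent inhibition of the EC80 response.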

[2] = biological target: mGluR5 (allosteric site, [3H]MPEP) (Homo sapiens, UniProt P41594); experiment: [3H]MPEP radioligand filtration binding assay on membrane homogenates; details: 5 nM [3H]MPEP; Ki from IC50 by Cheng and Prusoff equation
Procedure: Binding assays were performed as described in [J. A. O'Brien et al. Mol. Pharmacol., 2003, 64, 731-740] with slight modifications. Briefly, after thawing, the membrane homogenates were resuspended in 50 mM Tris-HCl, 0.9% NaCl binding buffer at pH 7.4 to a final assay concentration of 40 μg protein/well for [^3H]2-methyl-6-phenylethynyl-pyridine ([^3H] MPEP) (American Radiolabeled Chemicals, Inc., St. Louis, Mo.) filtration binding. Incubations included 5 nM [^3H] MPEP, membranes and either buffer or varying concentrations of compound. Samples were incubated for 60 min at room temperature with shaking. Non-specific binding was defined with 10 μM MPEP. After incubation, samples were filtered over a GF/C filter (presoaked in 0.25% polyethyleneimine (PEI)) and then washed 4 times using a Tomtec® Harvester 96® Mach III cell harvester (Tomtec, Hamden, Conn.) with 0.5 mL ice-cold 50 mM Tris-HCl (pH 7.4).
IC50 values were derived from the inhibition curve and Ki values were calculated according to the Cheng and Prusoff equation of Ki=IC50/(1+[L]/Kd) described in [Y. Cheng and W. H. Prusoff Biochem. Pharmacol. 1973, 22, 3099-3108] where [L] is the concentration of radioligand and Kd is its dissociation constant at the receptor, derived from the saturation isotherm.

male CD1 mice = experiment: Mouse marble burying (mMB) assay; format: in vivo; details: 30 mpk (sc), FIG. 1
Text: More specifically for the mMB testing, adult, male CD1 mice (Charles River Laboratories (Kingston, N.Y.)), weighing 25 to 30 g, were used. All animals were group-housed in a standard colony room with a 12:12 light/dark cycle (lights on at 6:00 am) for at least one week prior to testing. Food and water were provided ad libitum. Animals were weighed, tail marked, and randomly assigned to treatment groups before testing.
For each test, sixty minutes after the injection of vehicle or test compound, or 30 min after injection of the positive control, buspirone, mice were individually placed into test cages containing 1.5 in of Aspen bedding (PWI brand) and two rows of 10 marbles (20 marbles per test cage total). Filter tops were used to cover each test cage. Thirty minutes later, mice were removed from test cages and returned to their home cages. The number of fully visible marbles (less than ⅔ covered with bedding) were counted and subtracted from 20 to arrive at the number of marbles buried. Twelve mice were tested per group.
Testing included multiple tests with each test performed to evaluate buspirone hydrochloride (BUS; Sigma Aldrich) (positive control) and/or a compound of formula (I). […] Doses were measured in mg drug (salt form) per kg body weight. Data was analyzed using one-way ANOVA with post-hoc Dunnett's test.

T1 sequence (P31424 21-1203): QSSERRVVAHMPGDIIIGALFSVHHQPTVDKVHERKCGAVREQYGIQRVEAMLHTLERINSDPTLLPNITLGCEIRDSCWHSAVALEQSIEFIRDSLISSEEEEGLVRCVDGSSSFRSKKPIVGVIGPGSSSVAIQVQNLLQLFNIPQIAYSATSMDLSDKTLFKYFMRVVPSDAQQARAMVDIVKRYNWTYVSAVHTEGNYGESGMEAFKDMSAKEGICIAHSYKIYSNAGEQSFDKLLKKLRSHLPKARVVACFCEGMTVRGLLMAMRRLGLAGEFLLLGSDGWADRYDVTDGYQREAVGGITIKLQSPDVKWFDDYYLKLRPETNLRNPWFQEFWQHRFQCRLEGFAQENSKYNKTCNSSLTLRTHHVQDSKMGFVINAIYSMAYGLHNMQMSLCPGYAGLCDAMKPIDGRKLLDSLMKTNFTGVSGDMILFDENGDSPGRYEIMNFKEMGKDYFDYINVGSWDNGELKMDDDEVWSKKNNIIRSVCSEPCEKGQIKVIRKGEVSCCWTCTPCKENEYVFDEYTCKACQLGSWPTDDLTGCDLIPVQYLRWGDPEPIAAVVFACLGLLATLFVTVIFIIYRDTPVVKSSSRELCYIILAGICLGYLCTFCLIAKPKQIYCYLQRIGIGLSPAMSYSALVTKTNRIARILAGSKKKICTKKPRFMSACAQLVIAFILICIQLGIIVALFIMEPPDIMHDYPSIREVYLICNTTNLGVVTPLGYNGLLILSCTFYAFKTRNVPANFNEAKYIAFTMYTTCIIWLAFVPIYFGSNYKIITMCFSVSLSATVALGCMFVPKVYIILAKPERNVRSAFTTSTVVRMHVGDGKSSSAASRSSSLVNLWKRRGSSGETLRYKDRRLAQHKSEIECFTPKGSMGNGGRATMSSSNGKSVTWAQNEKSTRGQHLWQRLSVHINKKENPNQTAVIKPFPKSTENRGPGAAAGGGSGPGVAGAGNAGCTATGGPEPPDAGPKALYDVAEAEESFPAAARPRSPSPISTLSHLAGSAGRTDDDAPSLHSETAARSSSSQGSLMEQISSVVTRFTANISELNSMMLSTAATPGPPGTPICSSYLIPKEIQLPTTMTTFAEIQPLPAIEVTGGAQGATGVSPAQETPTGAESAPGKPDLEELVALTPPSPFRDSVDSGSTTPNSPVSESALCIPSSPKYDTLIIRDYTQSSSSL
mGluR5 (allosteric site, [3H]MPEP), sequence (P41594 21-1212): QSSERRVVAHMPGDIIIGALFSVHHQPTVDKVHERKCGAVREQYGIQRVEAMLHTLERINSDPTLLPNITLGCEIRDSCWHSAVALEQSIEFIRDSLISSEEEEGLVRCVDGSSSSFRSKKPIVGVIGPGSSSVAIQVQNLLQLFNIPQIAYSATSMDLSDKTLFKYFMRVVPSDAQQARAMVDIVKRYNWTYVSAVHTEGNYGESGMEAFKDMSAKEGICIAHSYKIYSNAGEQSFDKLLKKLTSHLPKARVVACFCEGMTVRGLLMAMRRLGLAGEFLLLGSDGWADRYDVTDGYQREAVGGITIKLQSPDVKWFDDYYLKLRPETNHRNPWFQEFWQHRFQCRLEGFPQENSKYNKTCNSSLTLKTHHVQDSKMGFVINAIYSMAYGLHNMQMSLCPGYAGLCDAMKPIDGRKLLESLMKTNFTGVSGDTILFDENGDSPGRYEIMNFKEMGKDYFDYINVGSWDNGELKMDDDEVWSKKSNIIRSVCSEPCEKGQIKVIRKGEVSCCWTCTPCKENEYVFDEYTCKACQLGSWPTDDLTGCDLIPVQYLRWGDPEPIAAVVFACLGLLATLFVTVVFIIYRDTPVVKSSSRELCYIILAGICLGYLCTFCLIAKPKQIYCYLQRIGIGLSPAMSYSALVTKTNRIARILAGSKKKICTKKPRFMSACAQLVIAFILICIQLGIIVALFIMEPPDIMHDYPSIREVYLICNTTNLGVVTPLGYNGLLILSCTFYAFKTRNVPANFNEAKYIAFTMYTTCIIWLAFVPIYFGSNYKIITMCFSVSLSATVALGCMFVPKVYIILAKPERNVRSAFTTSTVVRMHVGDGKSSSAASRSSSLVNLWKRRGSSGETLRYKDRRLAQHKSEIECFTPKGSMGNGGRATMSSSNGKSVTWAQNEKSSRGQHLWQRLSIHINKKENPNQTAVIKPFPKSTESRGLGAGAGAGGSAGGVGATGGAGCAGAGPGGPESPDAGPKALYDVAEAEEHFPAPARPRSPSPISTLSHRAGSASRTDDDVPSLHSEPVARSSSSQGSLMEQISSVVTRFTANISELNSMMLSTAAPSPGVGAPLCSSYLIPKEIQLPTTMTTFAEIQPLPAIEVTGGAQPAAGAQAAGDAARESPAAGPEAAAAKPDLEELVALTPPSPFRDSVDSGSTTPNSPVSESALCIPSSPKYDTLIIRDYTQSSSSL

Emax [1]: 81 to 99%
Ki [2]: 95 nM
SMILES: O=C(N[C@@H]1CCC[C@@]2(CCN(c3cccc(Cl)c3)C2=O)C1)c1ccccn1 (single isomer, unassigned) [Example 5]
in vivo anxiolytic effect in mouse marble burying (male CD1 mice): statistically significant in vivo anxiolytic effect
